Columns and labels:
HeLa = assay: Antiproliferative activity against human HeLa cells incubated for 72 hrs by Cell Titer Glo luminescence assay; format: functional, cell-based
SK-MEL3 = assay: Antiproliferative activity against human SK-MEL3 cells incubated for 72 hrs by Cell Titer Glo luminescence assay; format: functional, cell-based; conditions: SK-MEL3, 72 h
[1] = Metabolic stability in rat hepatocytes assessed as bioavailability at 1 uM measured upto 90 mins by LC-MS/MS analysis; format: ADME, Hepatocyte
[2] = Metabolic stability in mouse hepatocytes assessed as bioavailability at 1 uM measured upto 90 mins by LC-MS/MS analysis; format: ADME, Hepatocyte
[3] = Metabolic stability in dog hepatocytes assessed as bioavailability at 1 uM measured upto 90 mins by LC-MS/MS analysis; format: ADME, Canis lupus familiaris, Hepatocyte
[4] = target: cGMP-inhibited 3',5'-cyclic phosphodiesterase 3A (Homo sapiens, UniProt Q14432); assay: Inhibition of human full-length PDE3A expressed in Sf9 cells using [8-3H]adenosine 3', 5'-cyclic phosphate as substrate incubated for 60 mins by microbeta scintillation counting method
[5] = Selectivity ratio of IC50 for inhibition of full-length human PDE3A expressed in Sf9 cells to EC50 for antiproliferative activity against human HeLa cells
Hs-578T = assay: Antiproliferative activity against human Hs-578T cells incubated for 72 hrs by Cell Titer Glo luminescence assay; format: functional, cell-based
DK-MG = assay: Antiproliferative activity against human DK-MG cells incubated for 72 hrs by Cell Titer Glo luminescence assay; format: functional, cell-based
[6] = Antiproliferative activity against human NCI-H2172 cells incubated for 72 hrs by Cell Titer Glo luminescence assay; format: functional, cell-based; conditions: NCI-H2172, 72 h
[7] = Antiproliferative activity against human NCI-H196 cells incubated for 72 hrs by Cell Titer Glo luminescence assay; format: functional, cell-based; conditions: NCI-H196, 72 h
A2058 = assay: Antiproliferative activity against human A2058 cells incubated for 72 hrs by Cell Titer Glo luminescence assay; format: functional, cell-based; conditions: A2058, 72 h
C32 = assay: Antiproliferative activity against human C32 cells incubated for 72 hrs by Cell Titer Glo luminescence assay; format: functional, cell-based; conditions: C32, 72 h
RVH-421 = assay: Antiproliferative activity against human RVH-421 cells incubated for 72 hrs by Cell Titer Glo luminescence assay; format: functional, cell-based; conditions: RVH-421, 72 h
[8] = Antiproliferative activity against human L3.3 cells incubated for 72 hrs by Cell Titer Glo luminescence assay; format: functional, cell-based; conditions: L3.3, 72 h
[9] = Clearance in mouse blood; format: ADME, tissue-based
[10] = Metabolic stability in human hepatocytes assessed as bioavailability at 1 uM measured upto 90 mins by LC-MS/MS analysis; format: ADME, Hepatocyte
[11] = Clearance in rat blood; format: ADME, tissue-based
[12] = Half life in iv dosed mouse; format: ADME, organism-based; conditions: in vivo
[13] = Half life in iv dosed rat; format: ADME, organism-based; conditions: in vivo
[14] = Half life in iv dosed dog; format: ADME, organism-based, Canis lupus familiaris; conditions: in vivo
[15] = Oral bioavailability in rat; format: ADME, organism-based; conditions: in vivo
[16] = Oral bioavailability in dog; format: ADME, organism-based, Canis lupus familiaris; conditions: in vivo
[17] = Protein binding in plasma (unknown origin); format: ADME, cell-free; conditions: read-out: PPB (converted)
IGR-37 cell line = assay: Antitumor activity against human IGR-37 cells xenografted in po dosed NMRI nude mouse assessed as tumor growth inhibition administered twice daily; format: functional, organism-based; conditions: dose 0.5-2.5 mg/kg
[18] = Toxicity in NOD-SCID mouse assessed as tolerability at 10 mg/kg, po BID; format: organism-based; conditions: in vivo
[19] = Toxicity in NOD-SCID mouse assessed as weight loss at 10 mg/kg, po BID; format: organism-based; conditions: in vivo
GB-1 = assay: Antiproliferative activity against human GB-1 cells incubated for 72 hrs by CellTiter-Glo luminescence assay; format: functional, cell-based; conditions: GB-1, 72 h
[20] = Antiproliferative activity against human IGR-37 cell line; format: functional, cell-based
[21] = Oral bioavailability in mouse; format: ADME, organism-based; conditions: in vivo

cGMP-inhibited 3',5'-cyclic phosphodiesterase 3A, sequence (Q14432 whole entry): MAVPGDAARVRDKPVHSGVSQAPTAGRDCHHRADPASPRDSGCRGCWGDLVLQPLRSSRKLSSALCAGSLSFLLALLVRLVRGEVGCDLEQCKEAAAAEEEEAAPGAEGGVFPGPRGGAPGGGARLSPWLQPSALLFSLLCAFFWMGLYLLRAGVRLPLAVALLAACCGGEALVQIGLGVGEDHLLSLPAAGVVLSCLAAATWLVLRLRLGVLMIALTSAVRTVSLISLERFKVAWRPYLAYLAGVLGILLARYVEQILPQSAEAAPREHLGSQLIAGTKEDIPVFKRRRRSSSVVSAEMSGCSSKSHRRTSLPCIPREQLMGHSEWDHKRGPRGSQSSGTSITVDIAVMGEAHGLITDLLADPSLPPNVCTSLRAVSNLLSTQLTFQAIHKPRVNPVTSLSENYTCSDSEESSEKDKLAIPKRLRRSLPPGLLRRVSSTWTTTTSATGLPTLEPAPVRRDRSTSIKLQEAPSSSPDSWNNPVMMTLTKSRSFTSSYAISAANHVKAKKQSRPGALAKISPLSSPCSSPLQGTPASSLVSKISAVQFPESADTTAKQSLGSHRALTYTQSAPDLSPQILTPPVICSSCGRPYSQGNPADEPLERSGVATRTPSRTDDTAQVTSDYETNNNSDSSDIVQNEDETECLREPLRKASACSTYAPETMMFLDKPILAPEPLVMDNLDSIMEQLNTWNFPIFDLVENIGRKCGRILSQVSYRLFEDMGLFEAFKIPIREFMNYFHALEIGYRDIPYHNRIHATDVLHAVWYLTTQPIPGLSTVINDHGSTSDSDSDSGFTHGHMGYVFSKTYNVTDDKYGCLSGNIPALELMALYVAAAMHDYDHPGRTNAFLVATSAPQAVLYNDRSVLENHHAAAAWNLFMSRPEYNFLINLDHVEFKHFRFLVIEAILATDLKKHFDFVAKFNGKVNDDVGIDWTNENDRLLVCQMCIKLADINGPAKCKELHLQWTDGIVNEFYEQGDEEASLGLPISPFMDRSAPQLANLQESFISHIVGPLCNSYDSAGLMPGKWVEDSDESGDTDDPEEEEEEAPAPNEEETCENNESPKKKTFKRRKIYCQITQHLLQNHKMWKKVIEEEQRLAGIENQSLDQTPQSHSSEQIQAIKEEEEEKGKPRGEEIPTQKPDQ

In the case of `O=C1NN=C(c2ccc(N3CCC(F)(F)CC3)c(C(F)(F)F)c2)CO1`, the EC50 (HeLa) is reported as 1.59 nM, the EC50 (SK-MEL3) is reported as 5.06 nM and the predicted hepatic bioavailability (Fh) from hepatocyte stability at 1 µM [1] is reported as 67%. The Fh at 1.5 h, 1 µM [2] was 37% and the Fh at 1.5 h, 1 µM [3] was 28%.
For `C[C@@H]1OC(=O)NN=C1c1ccc(-c2cnn(C(F)F)c2)c(C(F)(F)F)c1`, the EC50 (HeLa) was 0.18 nM, the IC50 [4] was 37 nM and the “Ratio IC50/EC50” value [5] was 202. For the same compound, the EC50 (SK-MEL3) was 0.38 nM, the predicted hepatic bioavailability (Fh) from hepatocyte stability at 1 µM [1] was 99% and the Fh at 1.5 h, 1 µM [2] was 27%. For the same compound, the EC50 (Hs-578T) was 20 nM, the EC50 (DK-MG) was 13 nM and the EC50 [6] was 37 nM. It also gave an EC50 [7] of 32 nM, an EC50 (A2058) of 25 nM and an EC50 (C32) of 52 nM. The EC50 (RVH-421) was 47 nM, the EC50 [8] was 15 nM and the clearance [9] was 197 mL/min/kg. It also gave a Fh at 1.5 h, 1 µM [3] of 69% and a hepatic bioavailability predicted from hepatocyte stability (Fh) at 1 µM [10] of 32%.
For `O=C1NN=C(c2ccc(N3CCOCC3)c(F)c2)CO1`, the EC50 (HeLa) was 6.9 nM, the IC50 [4] was 180 nM and the “Ratio IC50/EC50” value [5] was 26. It also gave an EC50 (SK-MEL3) of 15.6 nM, a predicted hepatic bioavailability (Fh) from hepatocyte stability at 1 µM [1] of 94% and a Fh at 1.5 h, 1 µM [2] of 47%. It also gave a Fh at 1.5 h, 1 µM [3] of 100%.
In the case of `C[C@@H]1OC(=O)NN=C1c1ccc(-c2ccnc(N)c2)c(C(F)(F)F)c1`, the EC50 (HeLa) is reported as 0.69 nM, the IC50 [4] is reported as 76 nM and the “Ratio IC50/EC50” value [5] is reported as 109. It also gave an EC50 (SK-MEL3) of 1.43 nM, a predicted hepatic bioavailability (Fh) from hepatocyte stability at 1 µM [1] of 83% and a Fh at 1.5 h, 1 µM [2] of 36%. For the same compound, the clearance [9] was 42 mL/min/kg, the Fh at 1.5 h, 1 µM [3] was 56% and the hepatic bioavailability predicted from hepatocyte stability (Fh) at 1 µM [10] was 31%.
For `O=C1NN=C(c2ccc(N3CCC(F)(F)CC3)c(F)c2)CO1`, the EC50 (HeLa) was 1.55 nM, the “Ratio IC50/EC50” value [5] was 178 and the EC50 (SK-MEL3) was 3.85 nM. For the same compound, the predicted hepatic bioavailability (Fh) from hepatocyte stability at 1 µM [1] was 84%, the Fh at 1.5 h, 1 µM [2] was 19% and the clearance [9] was 91.7 mL/min/kg. The hepatic bioavailability predicted from hepatocyte stability (Fh) at 1 µM [10] was 82%.
With `Cc1cc(C2=NNC(=O)OC2)ccc1-c1ccc(F)cc1` the EC50 (HeLa) was 4.94 nM, the “Ratio IC50/EC50” value [5] was 44 and the EC50 (SK-MEL3) was 12.8 nM. For the same compound, the predicted hepatic bioavailability (Fh) from hepatocyte stability at 1 µM [1] was 88%, the Fh at 1.5 h, 1 µM [2] was 40% and the Fh at 1.5 h, 1 µM [3] was 48%. It also gave a hepatic bioavailability predicted from hepatocyte stability (Fh) at 1 µM [10] of 75%.
For `C[C@@H]1OC(=O)NN=C1c1ccc(-c2ccc(Cl)cn2)c(C(F)(F)F)c1`, the EC50 (HeLa) was 11.1 nM, the IC50 [4] was over 1000 nM and the “Ratio IC50/EC50” value [5] was over 90. The EC50 (SK-MEL3) was 0.25 nM, the predicted hepatic bioavailability (Fh) from hepatocyte stability at 1 µM [1] was 78% and the Fh at 1.5 h, 1 µM [2] was 53%. For the same compound, the Fh at 1.5 h, 1 µM [3] was 24%.
In the case of `C[C@@H]1OC(=O)NN=C1c1ccc(-n2cc(C(F)(F)F)cn2)c(C(F)(F)F)c1`, the EC50 (HeLa) is reported as 2.29 nM, the IC50 [4] is reported as 607 nM and the “Ratio IC50/EC50” value [5] is reported as 265. For the same compound, the EC50 (SK-MEL3) was 5.26 nM, the predicted hepatic bioavailability (Fh) from hepatocyte stability at 1 µM [1] was 93% and the Fh at 1.5 h, 1 µM [2] was 63%. The EC50 (Hs-578T) was 116 nM, the EC50 (DK-MG) was 59 nM and the EC50 [6] was 101 nM. For the same compound, the EC50 [7] was 355 nM, the EC50 (A2058) was 96 nM and the EC50 (C32) was 132 nM. For the same compound, the EC50 (RVH-421) was 262 nM, the EC50 [8] was 312 nM and the clearance [11] was 8.17 mL/min/kg. The clearance [9] was 18.3 mL/min/kg, the Fh at 1.5 h, 1 µM [3] was 87% and the hepatic bioavailability predicted from hepatocyte stability (Fh) at 1 µM [10] was 79%.
In the case of `O=C1NN=C(c2ccc(-c3ccc(F)cc3)c(C(F)(F)F)c2)CO1`, the EC50 (HeLa) is reported as 2.54 nM, the “Ratio IC50/EC50” value [5] is reported as 112 and the EC50 (SK-MEL3) is reported as 7.95 nM. For the same compound, the predicted hepatic bioavailability (Fh) from hepatocyte stability at 1 µM [1] was 84%, the Fh at 1.5 h, 1 µM [2] was 38% and the clearance [9] was 5.83 mL/min/kg. The Fh at 1.5 h, 1 µM [3] was 44% and the hepatic bioavailability predicted from hepatocyte stability (Fh) at 1 µM [10] was 70%.
In the case of `C[C@@H]1OC(=O)NN=C1c1ccc(-c2ccc(F)cc2)c(C(F)(F)F)c1`, the EC50 (HeLa) is reported as 1.04 nM, the IC50 [4] is reported as 82 nM and the “Ratio IC50/EC50” value [5] is reported as 79. The EC50 (SK-MEL3) was 2.81 nM, the predicted hepatic bioavailability (Fh) from hepatocyte stability at 1 µM [1] was 94% and the Fh at 1.5 h, 1 µM [2] was 85%. It also gave an EC50 (Hs-578T) of 33 nM, an EC50 (DK-MG) of 22 nM and an EC50 [6] of 38 nM. For the same compound, the EC50 [7] was 150 nM, the EC50 (A2058) was 38 nM and the EC50 (C32) was 58 nM. For the same compound, the EC50 (RVH-421) was 140 nM, the EC50 [8] was 82 nM and the clearance [11] was 4.17 mL/min/kg. It also gave a clearance [9] of 12.5 mL/min/kg, a half-life [12] of 276 min and a half-life [13] of 900 min. It also gave a half-life [14] of 780 min, a bioavailability [15] of over 95% and a bioavailability [16] of over 95%. The fraction unbound [17] was 0.002, the Activity (IGR-37 cell line) was “Dose-Dependent Effect” and the Activity [18] was “Non-Toxic”. The Activity [19] was “Non-Toxic”, the EC50 (GB-1) was 8 nM and the EC50 [20] was 3.1 nM. It also gave a Fh at 1.5 h, 1 µM [3] of 70%, a hepatic bioavailability predicted from hepatocyte stability (Fh) at 1 µM [10] of 73% and a bioavailability [21] of over 95%.
In the case of `O=C1NN=C(c2ccc(-c3ccc(F)cc3)c(OC(F)(F)F)c2)CO1`, the EC50 (HeLa) is reported as 5.67 nM, the IC50 [4] is reported as 222 nM and the “Ratio IC50/EC50” value [5] is reported as 39. For the same compound, the EC50 (SK-MEL3) was 12.9 nM, the predicted hepatic bioavailability (Fh) from hepatocyte stability at 1 µM [1] was 85% and the Fh at 1.5 h, 1 µM [2] was 32%. For the same compound, the Fh at 1.5 h, 1 µM [3] was 68% and the hepatic bioavailability predicted from hepatocyte stability (Fh) at 1 µM [10] was 80%.

Reference: ChEMBL document CHEMBL6071190, “Discovery of BAY 2666605, a Molecular Glue for PDE3A and SLFN12” (ACS Med Chem Lett, 2024)
